# From patent US10669283B2, “Compound and pharmacologically acceptable salt thereof” (MEIJI SEIKA PHARMA CO., LTD., priority 2016, dated 2020)
# Test system: PDE4
# Assay: PDE4 inhibition, scintillation proximity assay (SPA);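 as to PDE4 Inhibitory Activity (concentration for the inhibition rate of 50%): A below 100 nM B 100 to below 1000 nM C 1000 nM or more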
# Type: biochemical
# Conditions: scintillation proximity assay (SPA); evaluated as classes A, B, C; read-out: PDE4 Inhibitory Activity (concentration for the inhibition rate of 50%)
# Procedure: The PDE4 inhibitory activity was measured using scintillation proximity assay (SPA) as follows. A sample compound dissolved in dimethyl sulfoxide was diluted 1:10 in reaction buffer solution which contained 50 mM of Tris-HCl with pH 7.4, 8.3 mM of MgCl2, 1.7 mM of EGTA, and 3 mg/mL of bovine serum albumin (BSA). Then, 10 μL of the diluted solution was added in a 96-well assay plate. Moreover, 50 μL of PDE4 diluted 1:375 in the reaction buffer solution was added, and then 40 μL of [2,8-^3H]-adenosine-3′,5′-cyclic phosphate triethylammonium salt diluted 1:1000 in the reaction buffer solution was added. The mixture was allowed to stand at room temperature for 120 minutes. Thereafter, […] of RNA binding YSi-SPA beads suspension containing ZnSO4 was added and the mixture was allowed to stand at room temperature for 15 minutes, followed by adsorption of the enzyme reaction product to the beads. After that, the radioactivity was measured using a liquid scintillation counter for a 96-well plate. The mixture without the enzyme preparation added but only the reaction buffer solution added is a blank, and the mixture with the enzyme preparation added and only dimethyl sulfoxide added instead of the sample solution is a control.
row,SMILES,IC50 [nM]
1,"FC(F)(F)Oc1c(Cl)cc(-c2nccs2)c2oc(N3CC4CCC(C3)N4)nc12 [Example 1, 2-(3,8-Diazabicyclo[3.2.1]octan-3-yl)-5-chloro-7-(thiazol-2-yl)-4-(trifluoromethoxy)benzo[d]oxazole]",< 100
2,"CON=C(C)c1cc(-c2nccs2)c2oc(N3CC4CCC(C3)N4)nc2c1OC(F)(F)F (mixture of isomers) [Example 218, (E)-1-(2-(3,8-diazabicyclo[3.2.1]octan-3-yl)-7-(thiazol-2-yl)-4-(trifluoromethoxy)benzo[d]oxazol-5-yl)ethan-1-one O-methyloxime and (Z)-1-(2-(3,8-diazabicyclo[3.2.1]octan-3-yl)-7-(thiazol-2-yl)-4-(trifluoromethoxy)benzo[d]oxazol-5-yl)ethan-1-one O-methyloxime]",< 100
3,"Cc1ccc(-c2nccs2)c2oc(N3CC4CCC(C3)N4)nc12 [Example 25, 2-(3,8-Diazabicyclo[3.2.1]octan-3-yl)-4-methyl-7-(thiazol-2-yl)benzo[d]oxazole]",< 100
4,"FC(F)(F)Oc1cc(-c2nccs2)c2oc(N3CC4CCC(C3)N4)nc2c1 [Example 54, 2-(3,8-Diazabicyclo[3.2.1]octan-3-yl)-7-(thiazol-2-yl)-5-(trifluoromethoxy)benzo[d]oxazole]",< 100
5,"O=C(O)c1cc(-c2nccs2)c2oc(N3CC4CCC(C3)N4)nc2c1OC(F)(F)F [Example 189, 2-(3,8-Diazabicyclo[3.2.1]octan-3-yl)-7-(thiazol-2-yl)-4-(trifluoromethoxy)benzo[d]oxazole-5-carboxylic acid]",100 to 1000
6,"FC(F)(F)c1c(Cl)cc(-c2nccs2)c2oc(N3CC4COCC(C3)N4)nc12 [Example 19, 7-(5-Chloro-7-(thiazol-2-yl)-4-(trifluoromethyl)benzo[d]oxazol-2-yl)-3-oxa-7,9-diazabicyclo[3.3.1]nonane]",< 100
7,"CCOC(c1cc(-c2nccs2)c2oc(N3CC4CC(C3)N4)nc2c1)C(F)(F)F (stereo not shown) [Example 150, 2-(3,6-Diazabicyclo[3.1.1]heptan-3-yl)-5-(1-ethoxy-2,2,2-trifluoroethyl)-7-(thiazol-2-yl)benzo[d]oxazole]",< 100
8,"N#CCOC(c1cc(-c2nccs2)c2oc(N3CC4CC(C3)N4)nc2c1)C(F)(F)F (stereo not shown) [Example 152, 2-(1-(2-(3,6-Diazabicyclo[3.1.1]heptan-3-yl)-7-(thiazol-2-yl)benzo[d]oxazol-5-yl)-2,2,2-trifluoroethoxy)acetonitrile]",< 100
9,"CCC(O)c1cc(-c2nccs2)c2oc(N3CC4CCC(C3)N4)nc2c1OC(F)(F)F (stereo not shown) [Example 204, 1-(2-(3,8-Diazabicyclo[3.2.1]octan-3-yl)-7-(thiazol-2-yl)-4-(trifluoromethoxy)benzo[d]oxazol-5-yl)propan-1-ol]",< 100
10,"OC(c1ccc(-c2nccs2)c2oc(N3CC4CC(C3)N4)nc12)C(F)F (stereo not shown) [Example 125, 1-(2-(3,6-Diazabicyclo[3.1.1]heptan-3-yl)-7-(thiazol-2-yl)benzo[d]oxazol-4-yl)-2,2-difluoroethan-1-ol]",< 100
11,"COc1ccc(-c2nccs2)c2oc(N3CC4CC(C3)N4)nc12 [Example 76, 2-(3,6-Diazabicyclo[3.1.1]heptan-3-yl)-4-methoxy-7-(thiazol-2-yl)benzo[d]oxazole]",< 100
12,"O=C(O)c1cc(-c2nccs2)c2oc(N3CC4CCCC(C3)N4)nc2c1OC(F)(F)F [Example 191, 2-(3,9-Diazabicyclo[3.3.1]nonan-3-yl)-7-(thiazol-2-yl)-4-(trifluoromethoxy)benzo[d]oxazole-5-carboxylic acid]",100 to 1000
13,"CCOC(=O)c1cc(-c2nccs2)c2oc(N3CC4CCC(C3)N4)nc2c1C(F)(F)F [Example 163, Ethyl 2-(3,8-diazabicyclo[3.2.1]octan-3-yl)-7-(thiazol-2-yl)-4-(trifluoromethyl)benzo[d]oxazole-5-carboxylate]",< 100
14,"CC(=O)c1cc(-c2nccs2)c2oc(N3CC4CCC(C3)N4)nc2c1 [Example 108, 1-(2-(3,8-Diazabicyclo[3.2.1]octan-3-yl)-7-(thiazol-2-yl)benzo[d]oxazol-5-yl)ethan-1-one]",< 100
15,"OC(c1cc(-c2nccs2)c2oc(N3CC4CCCC(C3)N4)nc2c1)C(F)(F)F (stereo not shown) [Example 136, 1-(2-(3,9-Diazabicyclo[3.3.1]nonan-3-yl)-7-(thiazol-2-yl)benzo[d]oxazol-5-yl)-2,2,2-trifluoroethan-1-ol]",< 100
16,"CC(C)(O)C(F)(F)Oc1ccc(-c2ccccn2)c2oc(N3CC4CC(C3)N4)nc12 [Example 289, 1-((2-(3,6-Diazabicyclo[3.1.1]heptan-3-yl)-7-(pyridin-2-yl)benzo[d]oxazol-4-yl)oxy)-1,1-difluoro-2-methylpropan-2-ol]",< 100
17,"COC(=O)c1ccc(-c2nccs2)c2oc(N3CC4CCC(C3)N4)nc12 [Example 237, Methyl 2-(3,8-diazabicyclo[3.2.1]octan-3-yl)-7-(thiazol-2-yl) benzo[d]oxazole-4-carboxylate]",< 100
18,"CCOC(=O)c1cc(-c2nccs2)c2oc(N3CC4CCC(C3)N4)nc2c1OC(F)(F)F [Example 186, Ethyl 2-(3,8-diazabicyclo[3.2.1]octan-3-yl)-7-(thiazol-2-yl)-4-(trifluoromethoxy)benzo[d]oxazole-5-carboxylate]",< 100
19,"CC(C)(O)c1cc(-c2nccs2)c2oc(N3CC4CC(C3)N4)nc2c1 [Example 173, 2-(2-(3,6-Diazabicyclo[3.1.1]heptan-3-yl)-7-(thiazol-2-yl)benzo[d]oxazol-5-yl)propan-2-ol]",< 100
20,"CC(C)(O)C(F)(F)Oc1ccc(-c2cscn2)c2oc(N3CC4CCC(C3)N4)nc12 [Example 308, 1-((2-(3,8-Diazabicyclo[3.2.1]octan-3-yl)-7-(thiazol-4-yl)benzo[d]oxazol-4-yl)oxy)-1,1-difluoro-2-methylpropan-2-ol]",< 100
21,"FC(F)(F)COC(c1ccc(-c2nccs2)c2oc(N3CC4CC(C3)N4)nc12)C(F)(F)F (stereo not shown) [Example 223, 2-(3,6-Diazabicyclo[3.1.1]heptan-3-yl)-7-(thiazol-2-yl)-4-(2,2,2-trifluoro-1-(2,2,2-trifluoroethoxy)ethyl)benzo[d]oxazole]",< 100
22,"CC(C)(O)c1cc(-c2nccs2)c2oc(N3CC4CCCC(C3)N4)nc2c1C(F)(F)F [Example 166, 2-(2-(3,9-Diazabicyclo[3.3.1]nonan-3-yl)-7-(thiazol-2-yl)-4-(trifluoromethyl)benzo[d]oxazol-5-yl)propan-2-ol]",< 100
23,"COC(c1ccc(-c2nccs2)c2oc(N3CC4CC(C3)N4)nc12)C(F)(F)F (stereo not shown) [Example 122, 2-(3,6-Diazabicyclo[3.1.1]heptan-3-yl)-7-(thiazol-2-yl)-4-(2,2,2-trifluoro-1-methoxyethyl)benzo[d]oxazole]",< 100
24,"COC(c1cc(-c2nccs2)c2oc(N3CC4CC(C3)N4)nc2c1)C(F)(F)F (stereo not shown) [Example 144, 2-(3,6-Diazabicyclo[3.1.1]heptan-3-yl)-7-(thiazol-2-yl)-5-(2,2,2-trifluoro-1-methoxyethyl)benzo[d]oxazole]",< 100

# Same assay, conditions: scintillation proximity assay; class symbols; read-out: PDE4 Inhibitory Activity
row,SMILES,IC50 [nM]
1,"OC(c1ccc(-c2nccs2)c2oc(N3CC4CCC(C3)N4O)nc12)C(F)(F)F (stereo not shown) [Example 379, 3-(7-(thiazol-2-yl)-4-(2,2,2-trifluoro-1-hydroxyethyl)benzo[d]oxazol-2-yl)-3,8-diaza-bicyclo[3.2.1] octan-8-ol]",< 100
